Reference: US20240297323A1, “BIOBASED AQUEOUS ORGANIC-BASED ELECTROLYTE IN AQUEOUS ORGANIC REDOX FLOW BATTERY” (KEMIWATT, priority 2021, published 2024)
≈ marks a conversion by molar mass, not a printed value. Where two headings read alike, the source gives them in different places.

Key:
[1] = redox-active molecules used in negolytes in ARFBs; cited from earlier work
[2] = Electrochemical properties at diluted state (cyclic voltammetry, RDE linear sweep voltammetry); assay type: physicochemical; conditions: for k^0′O × 10^−2 apparent heterogeneous rate constant: Gileadi's equation, transfer coefficient 0.5; for E1/2 half-wave potential: LSV with RDE, 400 up to 1 000 RPM, pH 14; for DO × 10^−6 diffusion coefficient: Randles-Sevcik, scan rates 10 mV/s up to 20 V/s; for Peak-to-peak separation ΔEp at pH 14: pH 14 (KOH 1 M), 5.10^−3 M, scan rate 100 mV·s^−1, third cycle
Experimental: Cyclic voltammetry experiments were performed at a 100 mV/s scan rate for compounds A, B and B-M3CH in a solution at pH 14 (KOH 1 M).
The electrochemical experiments were conducted on an electrochemical working station (BioLogic Science Instruments VSP) at 25° C. using a three-electrodes electrochemical cell, where a Pt wire was employed at the counter electrode (CE), an Ag/AgCl/KCl saturated electrode immerged in a 1 M KOH solution protected from the cell by a porous frit glass served as the reference electrode (RE) and a rotating disc electrode (RDE) mounted with a glassy carbon (GC, 7.069 mm^2) disk was used as the working electrode (WE), respectively. The potential was reported relative to the normal hydrogen electrode (NHE), which was converted from the Ag/AgCl reference electrode (0.230 V versus NHE). The ohmic drop between the WE and RE is determined by current interrupt experiments and leads to a value close to 0.7069 Ω·cm^2. All cyclic voltammetry experiments were conducted by alleviating most of this resistance (85%) using the potentiostat manual ohmic drop compensation. Before each electrochemical measurement, the GC disk electrode was polished using SiC P4000 foil.
Each recorded cyclic voltammetry of the reduction and the oxidation process of a compound at a given scan rate is analyzed by measuring ip,a=anodic peak current; ip,c=cathodic peak current; v=scan rate; Ep,a=anodic peak potential; Ep,c=cathodic peak potential; ΔEp=Ep,a−Ep,c; the apparent standard redox potential E^0′=[…].
Linear sweep voltammetry (LSV) using the RDE at various rotation speed (400 up to 1 000 RPM) were performed to determine the averaged half-wave potential E1/2.
The oxidation (DO) and the reduction (DR) diffusion coefficients were calculated using Randles-Sevcik (RS) equation ip=0.4463.n^3/2.F^3/2.A.C.v^1/2.D^1/2.R^−1/2.T^−1/2=Cte.v^1/2.D^1/2, n=number of electrons exchanged during the redox process; F=faradaic number=96485 C·mol^−1; A=electrode active surface; C=redox active molecule concentration; R=gas constant=8.314 J·K^−1·mol^−1; T=bulk temperature=299 K. The experiments are conducted by cyclic voltammetry at various scan rates ranging from 10 mV/s up to 20 V/s.
A graphic of |ip,a| and |ip,c|=f(Cte.v^1/2) is plotted, if the redox process is reversible and diffusion controlled, the peak current should be proportional to the square root of the scan rate. The diffusion coefficients (oxidation and reduction) are then calculated by taking the square of the regression lines slopes. Diffusion coefficients (oxidation and reduction processes) are evaluated by plotting the peak current versus a constant multiplied by the square root of the scan rate. The plots regression line gives a straight line with perfect correlation coefficient (100%) confirming that the redox process is reversible and diffusion controlled. The square of each slope gives the associated coefficient diffusion in cm^2·s^−1.
The apparent heterogeneous rate constant during reduction (k^0′O) process was calculated using Gileadi's equation (C. Russel, W. Jaenicke, Electrochimica Acta, Vol 27, No. 12, 1745-1750, 1982) log k^0′=−0.48.α+0.52+log[(n.F.α.vc.D)/(2.303.R.T)]^1/2; vc is the critical scan rate, it is calculated by plotting the peak potentials versus the logarithm of the scan rates, and is more precise when a very wide range of scan rates is used, which is the case here (0.010 up to 20 V·s^−1), it is determined at the x-axis of the point of intersection of the regression lines drawn at low and high scan rates; a is the transfer coefficient that is supposed to be close to 0.5 for all presented compounds.
Peak-to-peak separation ΔEp values were determined from the third cycle of each cyclic voltammogram and are gathered in the following table 2.
The standard redox process reversibility evaluation is performed in diluted state, at 5 mM of concentration, at pH 14 buffered with 1 M of KOH. […]

[3] = Water solubility by shake-flask method in alkaline aqueous solution; assay type: physicochemical; conditions: for solubility: aqueous buffer, thermodynamic from solid
Experimental: The solubility of the compounds was evaluated in aqueous solution at various pH by shake-flask method. An aqueous solution (containing either KOH 1 M, NaOH 1 M, or a mixture of KOH 0.5 M and NaOH 0.5 M) is added over 100 mg of compound by 20 μL portions until complete solubilization. We obtain an approximate range of solubility values calculated as following:
Smax˜(m/M)/V; m=mass of evaluated compound(g);M=molar mass of evaluated compound(g·mol^−1);V=added volume(L).

[4] = Post-cycling analyses of the negolyte (cyclic voltammetry and 1H NMR before and after cycling); assay type: physicochemical; conditions: for degradation during the cycling test (1H NMR in D2O before/after): negolyte after cycling; for chemical stability in the application: conclusion from cycling and post-cycling analyses
Experimental: FIG. 3: Cyclic voltammetry (3rd cycle) of the negolyte (black line) before the cycling test and (grey line) after cycling test, recorded at a scan rate of 100 mV·s^−1.
FIG. 4: ^1H NMR spectra of the negolyte, recorded in D2O between 0 and 10 ppm, (black line) before and (grey line) after the cycling test.
A preliminary electrochemical test was performed on the negolyte before and after the cycling test (FIG. 3).
Further analyses were performed using ^1H NMR spectroscopy, see FIG. 4.
A preliminary electrochemical test was performed on the negolyte before and after thousands of cycles and a few months of cycling test (FIG. 7).
Further analyses were performed using ^1H NMR spectroscopy, see FIG. 8.
A preliminary electrochemical test was performed on the negolyte before and after the cycling test (FIG. 10) which lasted for more than 1000 cycles, or 25 days of constant cycling.
Further analyses were performed using ^1H NMR spectroscopy, see FIG. 11.

[5] = aqueous KOH 1 M solution, aqueous KOH 1 M, shake-flask, approximate, read-out: solubility estimated, KOH (1M)
[6] = aqueous NaOH 1 M solution, aqueous NaOH 1 M, shake-flask, approximate, read-out: solubility estimated, NaOH (1M)
[7] = aqueous alkaline solution, aqueous alkaline environment, read-out: solubility in aqueous alkaline environment
[8] = aqueous mixture of KOH 0.5 M and NaOH 0.5 M, mixture of KOH 0.5 M and NaOH 0.5 M, shake-flask, approximate, read-out: solubility estimated, KOH 0.5M + NaOH 0.5M

Row | k^0′O × 10^−2 apparent heterogeneous rate constant [2] | E1/2 half-wave potential [2] [V vs NHE] | DO × 10^−6 diffusion coefficient [2] | Peak-to-peak separation ΔEp at pH 14 [2] [mV] | solubility [3, 5] [mM] | solubility [3, 6] [mM] | solubility [3, 8] [mM] | degradation during the cycling test (1H NMR in D2O before/after) [4] | SMILES | DO × 10^−6 [1] | k^0′O × 10^−2 [1] | other results
1 | – | – | – | – | – | – | – | – | O=C1c2ccc(S(=O)(=O)O)cc2C(=O)c2cc(S(=O)(=O)O)ccc21 [AQ-2,7-DS] | 3.8 × 10^−6 cm^2/s | 0.72 × 10^−2 cm/s | –
2 | – | – | – | – | – | – | – | – | C[N+](C)(C)CCC[n+]1ccc(-c2cc[n+](CCC[N+](C)(C)C)cc2)cc1.[Cl-].[Cl-].[Cl-].[Cl-] [BTMAP-Vi] | 3.3 × 10^−6 cm^2/s | 2.2 × 10^−2 cm/s | –
3 | – | – | – | – | – | – | – | – | O=C1c2ccc(O)cc2C(=O)c2ccc(O)cc21 [DHAQ] | 4.8 × 10^−6 cm^2/s | 0.70 × 10^−2 cm/s | –
4 | – | – | – | – | – | – | – | – | O=C1c2ccc(OCCCP(=O)(O)O)cc2C(=O)c2ccc(OCCCP(=O)(O)O)cc21 [DPPEAQ] | 1.37 × 10^−6 cm^2/s | – | –
5 | 0.80 × 10^−2 cm/s | −0.57 | 2.99 × 10^−6 cm^2/s | 40 | 580 (≈ 147 mg/mL) | 500 (≈ 127 mg/mL) | 630 | does not undergo any degradation | Cc1cc(O)cc2c1C(=O)c1c(O)cccc1C2=O [Compound B, 3,8-dihydroxy-1-methylanthracene-9,10-dione] | – | – | solubility [3, 7]: > 300 mM; decrease of redox signature current intensity after cycling ([4]; after thousands of cycles and a few months, ascribed to osmosis dilution): 30-35%
6 | – | – | – | – | – | – | – | – | O=C(O)CCCOc1ccc2c(c1)C(=O)c1ccc(OCCCC(=O)O)cc1C2=O [DBEAQ] | 1.58 × 10^−6 cm^2/s | 0.70 × 10^−2 cm/s | –
7 | 2.47 × 10^−2 cm/s | −0.49 | 4.58 × 10^−6 cm^2/s | 30 | 150 (≈ 51 mg/mL) | 150 (≈ 51 mg/mL) | ~430 | does not undergo any degradation | Cc1cc(OCCCC(=O)O)cc2c1C(=O)c1c(O)cccc1C2=O [Compound B-M3CH, 4-((5-hydroxy-4-methyl-9,10-dioxo-9,10-dihydroanthracen-2-yl)oxy)butanoic acid] | – | – | solubility ([3]; aqueous KOH 1 M or NaOH 1 M solution, KOH 1 M or NaOH 1 M, read-out: solubility in ionic environment containing one type of alkaline cation): ~150 mM (≈ 51 mg/mL); solubility estimated, KOH 0.5M + NaOH 0.5M ([3]; mixture of KOH 0.5 M and NaOH 0.5 M, shake-flask, approximate): 430 mM; increase of redox signature current intensity after cycling ([4]; after more than 1000 cycles, 25 days, ascribed to osmosis concentration): about 30%; chemical stability in the application [4]: increased its stability
8 | – | – | – | – | – | – | – | – | Cc1cc2nc3c(=O)[nH]c(=O)nc-3n(C[C@H](O)[C@H](O)[C@H](O)COP(=O)([O-])O)c2cc1C.[Na+] [Flavine FMN-Na] | 1.3 × 10^−6 cm^2/s | 0.53 × 10^−2 cm/s | –
9 | 0.78 × 10^−2 cm/s | −0.59 | 3.65 × 10^−6 cm^2/s | 56 | 480 (≈ 143 mg/mL) | 320 (≈ 95.4 mg/mL) | 490 | degraded into multiple compounds | Cc1c(C(=O)O)c(O)cc2c1C(=O)c1c(O)cccc1C2=O [Compound A] | – | – | solubility [3, 7]: > 300 mM; oxidation not originally present in the negolyte ([4]; after cycling): −0.57 V vs Ag/AgCl; chemical stability in the application [4]: low chemical stability
10 | – | – | – | – | – | – | – | – | O=C1C=C(O)C(=O)C=C1O [DHBQ] | 3.66 × 10^−6 cm^2/s | 0.21 × 10^−2 cm/s | –
